From patent US10093713B2, “GIP-GLP-1 dual agonist compounds and methods” (priority 2013, dated 2018)
Read-outs that look alike come from different tables or passages of the source. *1 amine or outer side, *2 acyl side, *3 side chain or, on linkers, in order; H or OH if unused. Where a SMILES comes first, the peptide text is derived from it. Side-chain parts run from the residue outwards. [ ]: non-standard residue; d: D form. The star is where a group is joined. C20 diacid = O=C(O)CCCCCCCCCCCCCCCCCCC(=O)*; C18 diacid = O=C(O)CCCCCCCCCCCCCCCCC(=O)*; γGlu = O=C(O)[C@H](CCC(=O)[*:2])N[*:1]; AEEA = NCCOCCOCC(=O)O; Aib = CC(C)(N)C(=O)O

Legend:
human GIP R = target: T1, human GIP R (Homo sapiens, UniProt P48546); experiment: Human GIP receptor (GIP R) activity assay, cAMP induction (AlphaScreen) in HEK293 cells; type: cell-based; conditions: read-out: hGIP-R cAMP EC50 average value
T1 construct: expressed in transfected cells
T1 sequence (P48546 22-466): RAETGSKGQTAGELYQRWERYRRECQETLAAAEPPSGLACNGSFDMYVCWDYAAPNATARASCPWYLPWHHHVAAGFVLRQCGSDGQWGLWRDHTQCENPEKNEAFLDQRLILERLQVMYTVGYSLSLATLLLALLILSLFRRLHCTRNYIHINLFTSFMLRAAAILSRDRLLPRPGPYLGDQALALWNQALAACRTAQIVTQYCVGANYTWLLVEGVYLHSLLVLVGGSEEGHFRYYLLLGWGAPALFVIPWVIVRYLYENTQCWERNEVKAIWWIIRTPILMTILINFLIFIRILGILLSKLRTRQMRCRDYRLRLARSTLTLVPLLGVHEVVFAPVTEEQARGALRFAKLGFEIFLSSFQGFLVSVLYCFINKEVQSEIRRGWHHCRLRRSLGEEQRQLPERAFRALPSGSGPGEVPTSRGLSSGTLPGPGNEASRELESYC
Method in brief: (§1)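 Stable HEK293 clones expressing human GIP R or GLP-1 R, seeded 1 day before; cells washed in Tyrode's buffer (10 mM HEPES, pH 7.4), stimulated, then lysed. cAMP measured by AlphaScreen bead competition (1 h, room temperature, dark). EC50 = concentration giving half-maximal cAMP elevation, from curves of absolute cAMP (nM) vs log concentration.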

human GLP-1 R = target: T2, human GLP-1 R (Homo sapiens, UniProt P43220); experiment: Human GLP-1 receptor (GLP-1 R) activity assay, cAMP induction (AlphaScreen) in HEK293 cells; type: cell-based
T2 construct: expressed in transfected cells
T2 sequence (P43220 24-463): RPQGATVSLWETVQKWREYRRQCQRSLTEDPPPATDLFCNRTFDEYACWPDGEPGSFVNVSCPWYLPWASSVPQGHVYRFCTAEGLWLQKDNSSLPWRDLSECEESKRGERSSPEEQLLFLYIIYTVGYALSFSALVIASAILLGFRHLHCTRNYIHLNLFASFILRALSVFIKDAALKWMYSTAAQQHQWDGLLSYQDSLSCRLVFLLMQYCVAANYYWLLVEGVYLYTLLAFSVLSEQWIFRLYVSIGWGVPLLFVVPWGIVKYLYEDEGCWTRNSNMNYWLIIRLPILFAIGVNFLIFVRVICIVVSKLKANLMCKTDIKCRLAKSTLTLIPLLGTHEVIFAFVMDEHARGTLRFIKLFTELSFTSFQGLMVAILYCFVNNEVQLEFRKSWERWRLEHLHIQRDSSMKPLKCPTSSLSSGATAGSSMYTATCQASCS
Method in brief: as §1

[1] = Table 3, most comprehensive data
[2] = Table 3, most comprehensive data, read-out: hGLP-1-R cAMP EC50 average value
[3] = Table 2, HEK293 cells expressing human GIP R
[4] = Table 2, HEK293 cells expressing human GLP-1 R, read-out: hGLP1-R cAMP EC50 average value

Structure (SMILES) | EC50 (human GIP R; [1]) [nM] | EC50 (human GLP-1 R; [2]) [nM] | EC50 (human GIP R; [3]) [nM] | EC50 (human GIP R; Table 2a, secondary assay study) [nM] | EC50 (human GLP-1 R; [4]) [nM] | EC50 (human GLP-1 R; Table 2a, secondary assay study, read-out: hGLP1-R cAMP EC50 average value) [nM]
CC[C@H](C)[C@H](NC(=O)[C@H](CO)NC(=O)[C@H](Cc1ccc(O)cc1)NC(=O)[C@H](CC(=O)O)NC(=O)[C@H](CO)NC(=O)[C@@H](NC(=O)[C@H](Cc1ccccc1)NC(=O)[C@@H](NC(=O)CNC(=O)[C@H](CCC(=O)O)NC(=O)C(C)(C)NC(=O)[C@@H](N)Cc1ccc(O)cc1)[C@@H](C)O)[C@@H](C)O)C(=O)N[C@@H](Cc1ccc(O)cc1)C(=O)N[C@@H](CC(C)C)C(=O)N[C@@H](CC(=O)O)C(=O)N[C@@H](CCCCN)C(=O)N[C@@H](CCCCNC(=O)COCCOCCNC(=O)COCCOCCNC(=O)CCCCCCCCCCCCCCCCCCC(=O)O)C(=O)N[C@@H](C)C(=O)N[C@@H](CCC(N)=O)C(=O)N[C@@H](CCCNC(=N)N)C(=O)N[C@@H](C)C(=O)N[C@@H](Cc1ccccc1)C(=O)N[C@H](C(=O)N[C@@H](CCC(=O)O)C(=O)N[C@@H](Cc1c[nH]c2ccccc12)C(=O)N[C@@H](CC(C)C)C(=O)N[C@@H](CC(C)C)C(=O)N[C@@H](C)C(=O)N[C@@H](CCC(N)=O)C(=O)NCC(=O)N1CCC[C@H]1C(=O)N[C@@H](CO)C(=O)N[C@@H](CO)C(=O)NCC(=O)N[C@@H](C)C(=O)N1CCC[C@H]1C(=O)N1CCC[C@H]1C(=O)N1CCC[C@H]1C(=O)N[C@@H](CO)C(N)=O)C(C)C [Compound 35] (H-Y[Aib]EGTFTSDYSIYLDKK([AEEA-AEEA-C20 diacid])AQRAFVEWLLAQGPSSGAPPPS-NH2) | 0.016 | 0.012 |  |  |  | 
CC[C@H](C)[C@H](NC(=O)[C@H](CO)NC(=O)[C@H](Cc1ccc(O)cc1)NC(=O)[C@H](CC(=O)O)NC(=O)[C@H](CO)NC(=O)[C@@H](NC(=O)[C@H](Cc1ccccc1)NC(=O)[C@@H](NC(=O)CNC(=O)[C@H](CCC(=O)O)NC(=O)C(C)(C)NC(=O)[C@@H](N)Cc1ccc(O)cc1)[C@@H](C)O)[C@@H](C)O)C(=O)N[C@@H](Cc1ccc(O)cc1)C(=O)N[C@@H](CC(C)C)C(=O)N[C@@H](CC(=O)O)C(=O)N[C@@H](CCCCN)C(=O)N[C@@H](CCCCNC(=O)COCCOCCNC(=O)COCCOCCNC(=O)CCCCCCCCCCCCCCCCC(=O)O)C(=O)N[C@@H](C)C(=O)N[C@@H](CCC(N)=O)C(=O)N[C@@H](CCCNC(=N)N)C(=O)N[C@@H](C)C(=O)N[C@@H](Cc1ccccc1)C(=O)N[C@H](C(=O)N[C@@H](CCC(=O)O)C(=O)N[C@@H](Cc1c[nH]c2ccccc12)C(=O)N[C@@H](CC(C)C)C(=O)N[C@@H](CC(C)C)C(=O)N[C@@H](C)C(=O)N[C@@H](CCC(N)=O)C(=O)NCC(=O)N1CCC[C@H]1C(=O)N[C@@H](CO)C(=O)N[C@@H](CO)C(=O)NCC(=O)N[C@@H](C)C(=O)N1CCC[C@H]1C(=O)N1CCC[C@H]1C(=O)N1CCC[C@H]1C(=O)N[C@@H](CO)C(N)=O)C(C)C [Compound 5] (H-Y[Aib]EGTFTSDYSIYLDKK([AEEA-AEEA-C18 diacid])AQRAFVEWLLAQGPSSGAPPPS-NH2) |  |  | 0.012 | 0.011 | 0.014 | 0.014
CC[C@H](C)[C@H](NC(=O)[C@H](CO)NC(=O)[C@H](Cc1ccc(O)cc1)NC(=O)[C@H](CC(=O)O)NC(=O)[C@H](CO)NC(=O)[C@@H](NC(=O)[C@H](Cc1ccccc1)NC(=O)[C@@H](NC(=O)CNC(=O)[C@H](CCC(=O)O)NC(=O)C(C)(C)NC(=O)[C@@H](N)Cc1ccc(O)cc1)[C@@H](C)O)[C@@H](C)O)C(=O)N[C@@H](C)C(=O)N[C@@H](CC(C)C)C(=O)N[C@@H](CC(=O)O)C(=O)N[C@@H](CCCCN)C(=O)N[C@@H](CCCCNC(=O)COCCOCCNC(=O)COCCOCCNC(=O)CC[C@H](NC(=O)CCCCCCCCCCCCCCCCCCC(=O)O)C(=O)O)C(=O)N[C@@H](C)C(=O)N[C@@H](CCC(N)=O)C(=O)N[C@@H](CCCCN)C(=O)N[C@@H](CCC(=O)O)C(=O)N[C@@H](Cc1ccccc1)C(=O)N[C@H](C(=O)N[C@@H](CCC(=O)O)C(=O)N[C@@H](Cc1c[nH]c2ccccc12)C(=O)N[C@@H](CC(C)C)C(=O)N[C@@H](CC(C)C)C(=O)N[C@@H](C)C(=O)N[C@@H](C)C(=O)NCC(=O)N1CCC[C@H]1C(=O)N[C@@H](CO)C(=O)N[C@@H](CO)C(=O)NCC(=O)N[C@@H](C)C(=O)N1CCC[C@H]1C(=O)N1CCC[C@H]1C(=O)N1CCC[C@H]1C(=O)N[C@@H](CO)C(N)=O)C(C)C [Compound 49] (H-Y[Aib]EGTFTSDYSIALDKK([AEEA-AEEA-γGlu-C20 diacid])AQKEFVEWLLAAGPSSGAPPPS-NH2) | 0.009 | 0.053 |  |  |  | 
CC[C@H](C)[C@H](NC(=O)[C@H](CO)NC(=O)[C@H](Cc1ccc(O)cc1)NC(=O)[C@H](CC(=O)O)NC(=O)[C@H](CO)NC(=O)[C@@H](NC(=O)[C@H](Cc1ccccc1)NC(=O)[C@@H](NC(=O)CNC(=O)[C@H](CCC(=O)O)NC(=O)C(C)(C)NC(=O)[C@@H](N)Cc1ccc(O)cc1)[C@@H](C)O)[C@@H](C)O)C(=O)N[C@@H](C)C(=O)N[C@@H](CC(C)C)C(=O)N[C@@H](CCC(=O)O)C(=O)N[C@@H](CCCCN)C(=O)N[C@@H](CCCCNC(=O)COCCOCCNC(=O)COCCOCCNC(=O)CC[C@H](NC(=O)CCCCCCCCCCCCCCCCC(=O)O)C(=O)O)C(=O)N[C@@H](C)C(=O)N[C@@H](CCC(N)=O)C(=O)N[C@@H](CCCNC(=N)N)C(=O)N[C@@H](C)C(=O)N[C@@H](Cc1ccccc1)C(=O)N[C@H](C(=O)N[C@@H](CCC(=O)O)C(=O)N[C@@H](Cc1c[nH]c2ccccc12)C(=O)N[C@@H](CC(C)C)C(=O)N[C@@H](CCC(=O)O)C(=O)N[C@@H](C)C(=O)N[C@@H](CCC(N)=O)C(=O)N[C@@H](CCCCN)C(N)=O)C(C)C [Compound 23] (H-Y[Aib]EGTFTSDYSIALEKK([AEEA-AEEA-γGlu-C18 diacid])AQRAFVEWLEAQK-NH2) | 0.2 |  | 0.2 |  | 0.044 | 
CC[C@H](C)[C@H](NC(=O)[C@H](Cc1ccccc1)NC(=O)[C@H](CCC(=O)O)NC(=O)[C@H](CCCCN)NC(=O)[C@H](C)NC(=O)[C@H](C)NC(=O)[C@H](CCCCNC(=O)COCCOCCNC(=O)COCCOCCNC(=O)CC[C@H](NC(=O)CCCCCCCCCCCCCCCCC(=O)O)C(=O)O)NC(=O)[C@H](CCC(=O)O)NC(=O)[C@H](CC(=O)O)NC(=O)[C@H](CC(C)C)NC(=O)[C@H](Cc1ccc(O)cc1)NC(=O)[C@@H](NC(=O)[C@H](CO)NC(=O)[C@H](Cc1ccc(O)cc1)NC(=O)[C@H](CC(=O)O)NC(=O)[C@H](CO)NC(=O)[C@@H](NC(=O)[C@H](Cc1ccccc1)NC(=O)[C@@H](NC(=O)CNC(=O)[C@H](CCC(=O)O)NC(=O)C(C)(C)NC(=O)[C@@H](N)Cc1ccc(O)cc1)[C@@H](C)O)[C@@H](C)O)[C@@H](C)CC)C(=O)N[C@@H](CCC(=O)O)C(=O)N[C@@H](Cc1c[nH]c2ccccc12)C(=O)N[C@@H](CC(C)C)C(=O)N[C@@H](CCC(=O)O)C(=O)N[C@@H](CO)C(=O)N[C@@H](C)C(N)=O [Compound 13] | 0.15 | 0.057 |  |  |  | 
CC[C@H](C)[C@H](NC(=O)[C@H](CO)NC(=O)[C@H](Cc1ccc(O)cc1)NC(=O)[C@H](CC(=O)O)NC(=O)[C@H](CO)NC(=O)[C@@H](NC(=O)[C@H](Cc1ccccc1)NC(=O)[C@@H](NC(=O)CNC(=O)[C@H](CCC(=O)O)NC(=O)C(C)(C)NC(=O)[C@@H](N)Cc1ccc(O)cc1)[C@@H](C)O)[C@@H](C)O)C(=O)N[C@@H](Cc1ccc(O)cc1)C(=O)N[C@@H](CC(C)C)C(=O)N[C@@H](CC(=O)O)C(=O)N[C@@H](CCCCN)C(=O)N[C@@H](CCCCNC(=O)CC[C@H](NC(=O)CCCCCCCCCCCCCCCCCCC(=O)O)C(=O)O)C(=O)N[C@@H](C)C(=O)N[C@@H](CCC(N)=O)C(=O)N[C@@H](CCCNC(=N)N)C(=O)N[C@@H](C)C(=O)N[C@@H](Cc1ccccc1)C(=O)N[C@H](C(=O)N[C@@H](CCC(=O)O)C(=O)N[C@@H](Cc1c[nH]c2ccccc12)C(=O)N[C@@H](CC(C)C)C(=O)N[C@@H](CC(C)C)C(=O)N[C@@H](C)C(=O)N[C@@H](CCC(N)=O)C(=O)NCC(=O)N1CCC[C@H]1C(=O)N[C@@H](CO)C(=O)N[C@@H](CO)C(=O)NCC(=O)N[C@@H](C)C(=O)N1CCC[C@H]1C(=O)N1CCC[C@H]1C(=O)N1CCC[C@H]1C(=O)N[C@@H](CO)C(N)=O)C(C)C [Compound 36] (H-Y[Aib]EGTFTSDYSIYLDKK([γGlu-C20 diacid])AQRAFVEWLLAQGPSSGAPPPS-NH2) | 0.01 | 0.015 |  |  |  | 
